{
  "source": "patent US8048923B2",
  "about": "“Treatment of polyglutamine disorders caused by expanding genomic CAG nucleotides” (Odessa Pharma, priority 2003, dated 2011)",
  "key": {"[1]": {"test_system": "Huntington's disease", "conditions": "patients, cited from earlier work; for slowing of progression of Huntington's disease: large-scale clinical trial"}, "[2]": {"conditions": "in vivo; cited from earlier work"}, "[3]": {"molecular_target": "glutamine synthetase (Homo sapiens, UniProt P15104)", "sequence (P15104 2-373 limits assumed, species assumed)": "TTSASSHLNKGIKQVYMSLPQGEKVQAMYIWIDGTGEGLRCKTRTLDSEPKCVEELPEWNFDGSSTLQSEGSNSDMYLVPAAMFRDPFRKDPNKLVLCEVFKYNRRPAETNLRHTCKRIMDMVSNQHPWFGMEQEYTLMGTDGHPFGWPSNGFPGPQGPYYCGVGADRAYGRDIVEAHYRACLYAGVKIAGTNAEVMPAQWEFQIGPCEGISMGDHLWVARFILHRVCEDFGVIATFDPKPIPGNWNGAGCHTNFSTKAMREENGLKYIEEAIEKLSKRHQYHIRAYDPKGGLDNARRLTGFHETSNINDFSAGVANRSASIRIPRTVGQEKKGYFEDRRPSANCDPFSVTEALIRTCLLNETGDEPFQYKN", "conditions": "cited from earlier work"}, "[4]": {"test_system": "Differentiated inducible PC12 cells", "experiment": "L-glutamine add-back to MSO treated PC12 culture", "assay_type": "cell-based", "method": "The cells are grown overnight and aggregation is calculated. Inhibition of aggregation proceeds in a concentration-dependent manner.\nIn contrast, the addition of L-GLN has no effect on the growth of cells not treated with MSO or cultures treated with subinhibitory concentrations of MSO."}, "[5]": {"test_system": "Differentiated inducible PC12 cells", "conditions": "MSO 1-100 μM, low glutamine medium, overnight, fluorescent microscopy counts", "quoted_text": "Cells (1×10^6) are plated in 10-cm plates using tissue culture medium low in glutamine to ensure that most of the glutamine in the cells is the product of de novo synthesis by cellular glutamine synthetase. […] MSO is added directly to the cell-culture media at final concentrations of 1-100 μM. The cells are grown overnight and aggregation is calculated. […] Visual counts of aggregates are performed by using fluorescent microscopy."}, "[6]": {"test_system": "Drosophila transgenic polyQ line P{UAS-Q48myc}^42", "conditions": "Q48 flies fed MSO; Q48 flies without MSO need an average of 26 sec", "quoted_text": "Flies are mated at 25° C. as described in Nature 413, 739-743. Eggs are collected and transferred into vials at 29° C. containing standard food supplemented with MSO, and adults are transferred to vials containing fresh food every 3 days after eclosion.\nA second phenotype associated with expanded polyQ expression is a decrease in motor function. This is assayed by using an “escape” or climbing assay as described in Exp. Gerontol."}, "[7]": {"test_system": "brain levels of glutamine", "conditions": "MSO administered to normal animals; reduced from 5.6; cited from earlier work"}, "[8]": {"test_system": "mice with the gene mutation for Huntington's disease (HD)", "conditions": "cited from earlier work"}},
  "data": [
    {"smiles": "COC1=C(OC)C(=O)C(C/C=C(\\C)CC/C=C(\\C)CC/C=C(\\C)CC/C=C(\\C)CC/C=C(\\C)CC/C=C(\\C)CC/C=C(\\C)CC/C=C(\\C)CC/C=C(\\C)CCC=C(C)C)=C(C)C1=O", "note": "[Coenzyme Q10]", "values": [
      {"measurement": "slowing of progression of Huntington's disease", "setting": "[1]", "value": "neither drug resulted in any significant improvement"},
      {"measurement": "disease progression after one year of treatment", "setting": "[1]; one year of treatment, overall results inconclusive", "value": "seemed to progress more slowly"}
    ]},
    {"smiles": "CP(=O)(O)CCC(N)C(=O)O", "note": "[Glufosinate, ammonium-D-L-homoalanine-4-yl(methyl)-phosphinate]", "values": [
      {"measurement": "crossing of the blood brain barrier", "setting": "[2]", "value": "does not cross the blood brain barrier"},
      {"measurement": "type of inhibition of glutamine synthetase", "setting": "[3]", "value": "catalytic inhibitor"}
    ]},
    {"smiles": "NC(=O)CC[C@H](N)C(=O)O", "note": "[L-glutamine]", "values": [
      {"measurement": "toxic protein synthesis and aggregation after addition of L-glutamine", "setting": "[4]; MSO treated culture", "value": "increased toxic protein synthesis and aggregation"},
      {"measurement": "growth of cells after addition of L-GLN", "setting": "[4]; cells not treated with MSO or treated with subinhibitory concentrations of MSO", "value": "no effect"}
    ]},
    {"smiles": "CS(=N)(=O)CC[C@H](N)C(=O)O", "note": "(stereo partly drawn) [MSO, L-methionine S-sulfoximine]", "values": [
      {"measurement": "visible aggregate production (aggregation)", "setting": "[5]", "value": "inhibit aggregation"},
      {"measurement": "time to climb a defined distance up a vial (motor function)", "setting": "[6]", "value": "require less time to climb the same distance"},
      {"measurement": "brain levels of glutamine", "setting": "[7]", "value": 1.8, "unit": "mmol/kg brain"},
      {"measurement": "type of inhibition of glutamine synthetase", "setting": "[3]", "value": "irreversible inhibitor"}
    ]},
    {"smiles": "NCCSSCCN", "note": "[cystamine]", "values": [
      {"measurement": "tremors and survival", "setting": "[8]; HD mutation mice", "value": "alleviate tremors and prolong life"},
      {"measurement": "levels of neuroprotective proteins", "setting": "[8]; mouse, in vivo", "value": "increase the levels of certain neuroprotective proteins"}
    ]},
    {"smiles": "CC(Cc1ccccc1)(NC(=O)CN)c1ccccc1", "note": "(stereo not shown) [Remacemide]", "values": [
      {"measurement": "slowing of progression of Huntington's disease", "setting": "[1]", "value": "neither drug resulted in any significant improvement"}
    ]}
  ]
}
